# According to patent US20150291598A1 (NOVARTIS AG, priority 2012, published 2015):
# System: P. falciparum (NF54 or 3D7 strain)
# Test: Assay for P. falciparum proliferation in infected human blood cells (SYBR Green)
# Format: cell-based, Plasmodium falciparum
# Conditions: Plasmodium falciparum, 3D7|NF54, Erythrocyte, in Homo sapiens, 72 h, NF54 or 3D7 infected human erythrocytes, 72 hours; read-out: EC50 (nM), inhibitory efficacy in delaying P. falciparum proliferation in infected human blood cells
# Method: Assay for P. falciparum Proliferation in Infected Human Blood Cells
# Compounds of the invention can be assayed to measure their capacity to inhibit proliferation of P. falciparum parasitemia in infected red blood cells. This parasite proliferation assay measures the increase in parasite DNA content using a DNA intercalating dye, SYBR Green® (INVITROGEN®) which has a high affinity for double stranded DNA.
# NF54 or 3D7 P. falciparum strain is grown in complete culturing media until parasitemia reaches 3% to 8% with O+ human erythrocytes. […] 20 μl of screening media is dispensed into 384 well assay plates. 50 nl of compounds of the invention (in DMSO), including antimalarial controls (mefloquine, pyrimethamine and artemisinin), are then transferred into the assay plates, as well as DMSO alone to serve as a negative control for inhibition. Then 30 μl of a suspension of a NF54 or 3D7 P. falciparum infected erythrocytes in screening media is dispensed into the assay plates such that the final hematocrit is 2.5% with a final parasitemia of 0.3%. The plates are placed in a 37° C. incubator for 72 hours in a low oxygen environment containing 93% N2, 4% CO2, and 3% O2 gas mixture. 10 μl of lysis buffer (saponin, triton-X, EDTA) containing a 10× solution of SYBR Green I® in RPMI media is dispensed into the plates. The plates are lidded and kept at room temperature overnight for the lysis of the infected red blood cells. The fluorescence intensity is measured (excitation […], emission 530 nm) using the Envision™ system (Perkin Elmer).
row,EC50 [nM],Compound
1,1360,CN(C(=O)c1cn2c(-c3ccc(S(N)(=O)=O)cc3)cnc2cn1)c1ccc(C#N)cc1 [Compound 148]

# Same assay, conditions: Plasmodium falciparum, Erythrocyte, 72 h, NF54 or 3D7 infected human erythrocytes, 72 hours; read-out: EC50 (nM), inhibitory efficacy in delaying P. falciparum proliferation in infected human blood cells
row,Compound,EC50 [nM]
1,"N#Cc1nc[nH]c1NC(=O)c1cn2c(-c3ccc(C(F)(F)F)cc3)cnc2cn1 [Compound 389, N-(4-cyano-1H-imidazol-5-yl)-3-[4-(trifluoromethyl)phenyl]imidazo[1,2-a]pyrazine-6-carboxamide]",2000
2,"CN(C(=O)c1cn2c(-c3ccc(C(F)(F)F)cc3)cnc2cn1)c1ccc(Cl)cc1Cl [Compound 49, N-(2,4-dichlorophenyl)-N-methyl-3-[4-(trifluoromethyl)phenyl]imidazo[1,2-a]pyrazine-6-carboxamide]",314
3,"CN(C(=O)c1cn2c(-c3ccc(C(F)(F)F)cc3)cnc2cn1)c1ccc(Cl)cn1 [Compound 435, N-(5-chloropyridin-2-yl)-N-methyl-3-[4-(trifluoromethyl)phenyl]imidazo[1,2-a]pyrazine-6-carboxamide]",214
4,"CN(Cc1cn2c(-c3ccc(-n4cccn4)cc3)cnc2cn1)c1ccc(Cl)cc1 [Compound 9, N-((3-(4-(1H-pyrazol-1-yl)phenyl)imidazo[1,2-a]pyrazin-6-yl)methyl)-4-chloro-N-methylaniline]",218
5,"N#Cc1ccc2c(c1)OCCN2C(=O)c1cn2c(-c3ccc(C(F)(F)F)cc3)cnc2cn1 [Compound 315, 4-({3-[4-(trifluoromethyl)phenyl]imidazo[1,2-a]pyrazin-6-yl}carbonyl)-3,4-dihydro-2H-1,4-benzoxazine-7-carbonitrile]",2420
6,"CN(Cc1cn2c(-c3ccc(OC(F)F)cc3)cnc2cn1)c1ccc(F)cc1 [Compound 21, N-({3-[4-(difluoromethoxy)phenyl]imidazo[1,2-a]pyrazin-6-yl}methyl)-4-fluoro-N-methylaniline]",46
7,"Cc1ccc(N(C)Cc2cn3c(-c4ccc(C(F)F)cc4)cnc3cn2)nc1 [Compound 241, N-({3-[4-(difluoromethyl)phenyl]imidazo[1,2-a]pyrazin-6-yl}methyl)-N,5-dimethylpyridin-2-amine]",262
8,"CN(C(=O)c1cn2c(-c3ccc(C(F)(F)F)cc3)cnc2cn1)c1ccc(OC(F)(F)F)cc1 [Compound 173, N-methyl-N-[4-(trifluoromethoxy)phenyl]-3-[4-(trifluoromethyl)phenyl]imidazo[1,2-a]pyrazine-6-carboxamide]",4250
9,"CN(C(=O)c1cn2c(-c3ccc(C(F)(F)F)cc3)cnc2cn1)c1ccc(-n2cncn2)cc1 [Compound 313, N-methyl-N-[4-(1H-1,2,4-triazol-1-yl)phenyl]-3-[4-(trifluoromethyl)phenyl]imidazo[1,2-a]pyrazine-6-carboxamide]",1320
10,"CC1(C)CCc2cc(F)ccc2N1C(=O)c1cn2c(-c3ccc(C(N)=O)cc3)cnc2cn1 [Compound 229, 4-{6-[(6-fluoro-2,2-dimethyl-1,2,3,4-tetrahydroquinolin-1-yl)carbonyl]imidazo[1,2-a]pyrazin-3-yl}benzamide]",19
11,"Cc1cccc(CN(C)C(=O)c2cn3c(-c4ccc(C(F)(F)F)cc4)cnc3cn2)n1 [Compound 190, N-methyl-N-[(6-methylpyridin-2-yl)methyl]-3-[4-(trifluoromethyl)phenyl]imidazo[1,2-a]pyrazine-6-carboxamide]",6240
12,"CN(C(=O)c1cn2c(-c3ccc(C(F)(F)F)cc3)cnc2cn1)c1ccc(F)nc1 [Compound 79, N-(6-fluoropyridin-3-yl)-N-methyl-3-[4-(trifluoromethyl)phenyl]imidazo[1,2-a]pyrazine-6-carboxamide]",214
13,"COCCN(C(=O)c1cn2c(-c3ccc(C(F)(F)F)cc3)cnc2cn1)c1ccc(C#N)cc1 [Compound 238, N-(4-cyanophenyl)-N-(2-methoxyethyl)-3-[4-(trifluoromethyl)phenyl]imidazo[1,2-a]pyrazine-6-carboxamide]",152
14,"CC(=O)Nc1ccc(-c2cnc3cnc(CN(C)c4ccc(C#N)cc4)cn23)cn1 [Compound 226, N-[5-(6-{[(4-cyanophenyl)(methyl)amino]methyl}imidazo[1,2-a]pyrazin-3-yl)pyridin-2-yl]acetamide]",37
15,"CN(C(=O)c1cn2c(-c3ccc(Cl)cc3)cnc2cn1)c1ccc(F)c(F)c1 [Compound 112, 3-(4-chlorophenyl)-N-(3,4-difluorophenyl)-N-methylimidazo[1,2-a]pyrazine-6-carboxamide]",103
16,"O=C(c1cn2c(-c3ccc(C(F)(F)F)cc3)cnc2cn1)N1CCOCC1 [Compound 374, 4-({3-[4-(trifluoromethyl)phenyl]imidazo[1,2-a]pyrazin-6-yl}carbonyl)morpholine]",> 9820

# Second part, the compound after the results:
row,EC50 [nM],Compound
1,6750,"CN(C(=O)c1cn2c(-c3ccc(Oc4ccccc4)cc3)cnc2cn1)c1ccc(C#N)cc1 [Compound 177, N-(4-cyanophenyl)-N-methyl-3-(4-phenoxyphenyl)imidazo[1,2-a]pyrazine-6-carboxamide]"
2,1160,"CN(C(=O)c1cn2c(-c3ccc(C#N)cc3)cnc2cn1)c1ccc(C(F)(F)F)cc1 [Compound 369, 3-(4-cyanophenyl)-N-methyl-N-[4-(trifluoromethyl)phenyl]imidazo[1,2-a]pyrazine-6-carboxamide]"
3,4400,"CN(C(=O)c1cn2c(-c3ccc(Cl)cc3C(F)(F)F)cnc2cn1)c1ccc(C#N)cc1 [Compound 179, 3-[4-chloro-2-(trifluoromethyl)phenyl]-N-(4-cyanophenyl)-N-methylimidazo[1,2-a]pyrazine-6-carboxamide]"
4,2990,"CN(C)c1ncc(-c2cnc3cnc(C(=O)N(C)c4ccc(C#N)cc4)cn23)cn1 [Compound 344, N-(4-cyanophenyl)-3-[2-(dimethylamino)pyrimidin-5-yl]-N-methylimidazo[1,2-a]pyrazine-6-carboxamide]"
5,85,"COc1ccc(-c2cnc3cnc(C(=O)N(C)c4ccc(F)cc4)cn23)cc1 [Compound 69, N-(4-fluorophenyl)-3-(4-methoxyphenyl)-N-methylimidazo[1,2-a]pyrazine-6-carboxamide]"
6,116,"CN(C)c1ccc(-c2cnc3cnc(C(=O)N(C)c4ccc(C#N)cc4)cn23)cc1 [Compound 77, N-(4-cyanophenyl)-3-[4-(dimethylamino)phenyl]-N-methylimidazo[1,2-a]pyrazine-6-carboxamide]"
7,558,"CN(C(=O)c1cn2c(-c3ccc4c(=O)[nH]ccc4c3)cnc2cn1)c1ccc(C#N)cc1 [Compound 168, N-(4-cyanophenyl)-N-methyl-3-(1-oxo-1,2-dihydroisoquinolin-6-yl)imidazo[1,2-a]pyrazine-6-carboxamide]"
8,291,Cc1n[nH]c2ccc(-c3cnc4cnc(C(=O)N(C)c5ccc(C#N)cc5)cn34)cc12 [Compound 424]
9,63,"COc1ccc(-c2cnc3cnc(C(=O)N(C)c4ccc(Cl)cc4)cn23)cc1 [Compound 219, N-(4-chlorophenyl)-3-(4-methoxyphenyl)-N-methylimidazo[1,2-a]pyrazine-6-carboxamide]"
10,5100,"COc1cccc(-c2cnc3cnc(C(=O)N(C)c4ccc(C#N)cc4)cn23)c1 [Compound 48, N-(4-cyanophenyl)-3-(3-methoxyphenyl)-N-methylimidazo[1,2-a]pyrazine-6-carboxamide]"
11,651,"C[C@@H](N)CC(=O)Nc1ccc(-c2cnc3cnc(C(=O)N(C)c4ccc(C#N)cc4)cn23)cc1 [Compound 269, 3-{4-[(3R)-3-aminobutanamido]phenyl}-N-(4-cyanophenyl)-N-methylimidazo[1,2-a]pyrazine-6-carboxamide]"
12,> 10000,"CN(C(=O)c1cn2c(-c3cccnc3)cnc2cn1)c1ccc(C#N)cc1 [Compound 195, N-(4-cyanophenyl)-N-methyl-3-(pyridin-3-yl)imidazo[1,2-a]pyrazine-6-carboxamide]"
13,33,"CN(C(=O)c1cn2c(-c3ccc(C(F)(F)F)cc3)cnc2cn1)c1ccc(F)cc1 [Compound 101, N-(4-fluorophenyl)-N-methyl-3-[4-(trifluoromethyl)phenyl]imidazo[1,2-a]pyrazine-6-carboxamide]"
14,137,"CN(C(=O)c1cn2c(-c3ccc(NC(=O)[C@@H](N)C4CCCCC4)cc3)cnc2cn1)c1ccc(C#N)cc1 [Compound 212, 3-{4-[(2S)-2-amino-2-cyclohexylacetamido]phenyl}-N-(4-cyanophenyl)-N-methylimidazo[1,2-a]pyrazine-6-carboxamide]"
15,276,"CN(C(=O)c1cn2c(-c3ccc4[nH]ccc4c3)cnc2cn1)c1ccc(C#N)cc1 [Compound 428, N-(4-cyanophenyl)-3-(1H-indol-5-yl)-N-methylimidazo[1,2-a]pyrazine-6-carboxamide]"
16,34,"CN(C(=O)c1cn2c(-c3ccc(-c4ccn[nH]4)cc3)cnc2cn1)c1ccc(C#N)cc1 [Compound 481, N-(4-cyanophenyl)-N-methyl-3-[4-(1H-pyrazol-5-yl)phenyl]imidazo[1,2-a]pyrazine-6-carboxamide]"
